Laboratory results as given in patent US20100247602A1, “METHOD OF REDUCING THE EFFECTS OF CYTOSTATIC DRUGS ON BONE MARROW DERIVED CELLS, AND METHODS OF SCREENING” (priority 2007, published 2010).
Entries after “also recorded” stand apart in the source; their conditions may differ.

What was measured:
[1] = tested on: bone marrow derived cells (BMDCs); test: Differentiation profile of BMDCs by flow cytometry; format: cell-based, mouse (C57BL/6 female mice); settings: for percentage of CD117+ cells: E2 alone (10^−9M) or in combination with paclitaxel (5×10^−9 M), one week; for total or sub-populations of CD44+ cells: one week treatment, paclitaxel 5×10^-9M, rapamycin 10^-10M, alone or in combination
Procedure: (§1) BMDCs were cultured and isolated as described above.
BMDCs were plated and grown during 7 days before treatment (stimulation). Rapamycin (LC Laboratories) or paclitaxel (LC laboratories) were added for a one week treatment at IC50 concentration. Afterward, cells were washed twice in PBS and non specific binding sites were blocked with 5% normal rat serum (Jackson Immunoresearch Laboratories Inc.). To evaluate the differentiation profile of the BMDCs, quadruple stainings were performed as follow: 1) for the HSC allophycocyanin (APC, Caltag Laboratories, Carlsbad, Calif.) conjugated monoclonal rat-anti-mouse CD117, fluorescein isothiocyanate (FITC, BD pharmingen, San Jose, Calif.) conjugated monoclonal rat anti-mouse CD31 (platelet endothelial cell adhesion molecules-1, PECAM), biotin conjugated monoclonal rat anti-mouse CD34 (Bio, BD pharmingen), growth factor receptor-2 (VEGFR2); and 2) for the stromal cells: APC (Abcam Inc., Cambridge Mass.) conjugated monoclonal rat anti-mouse CD90, FITC conjugated (BD pharmingen) monoclonal rat anti-mouse CD44 (hyaluronic acid receptor), PE conjugated monoclonal rat anti-mouse vascular cell adhesion molecule (V-CAM/CD106, Abcam Inc.), biotin (Abcam Inc.) conjugated monoclonal rat anti-mouse CD105 (Endoglin). Corresponding isotype antibodies were used as negative controls; monoclonal rat anti-mouse IgG2a-APC (Abcam Inc.), monoclonal rat anti-mouse IgG2a-FITC, (Abcam Inc.), monoclonal rat anti-mouse IgG2a-PE (BD pharmingen), monoclonal rat anti-mouse IgG2a-Bio (Abcam Inc.). To analyze the biotin conjugated antibody, a secondary antibody streptavidine-ECD (Beckman coulter, Fullerton, Calif.) was used. Data acquisition was performed using 1×10^6 events per sample. Of these events, only low-to-medium FSC (forward scattered channel) and SSC (side scattered channel) singlets were gated for analysis of BM subpopulations. In all cases, gated singlets represented 80 to 90% of acquired events. The acquisition and analysis were performed on an Epics Altra cytometer from Beckman using the EXPO™ 32 system ADC software (Beckman Coulter, Fullerton, Calif.).

[2] = tested on: bone marrow derived cells (BMDCs); test: Proliferation assay of BMDCs (cell count with trypan blue); format: cell-based, mouse (C57BL/6 female mice); settings: for IC50: Mus musculus, BMDC, 168 h, one week treatment, cellular count, read-out: IC50 for cell growth
Procedure: as §1
After this time, cells were processed as described above.

ERβ = test: Western blot, ERβ expression in BMDCs / mBMPC; format: cell-based, mouse
Procedure: (§2) Membranes were stripped with Re-Blot Plus™ (International Chemicon) and total protein expression was determined with a goat polyclonal β-actin (1:1000 dilution, Santa Cruz Biotechnology Inc.).

[3] = tested on: bone marrow derived cells (BMDCs)
Excerpt: Six-week old C57BL/6 female mice (Jackson Laboratoiries, Bar Harbor, Mass.) were used as bone marrow donors. The mice were euthanized by a ketamine hydrochloride (Bioniche, Belleville, ON) and xylazine (Rompum, Bayer's Inc, Toronto, ON) injections. Total bone marrow cells were collected from femurs and tibia, pooled, and washed twice with phosphate-buffered saline (PBS, Invitrogen corp., Carlsbad, Calif.) contained 2% fetal bovine serum (FBS, Hyclone Laboratories, Logan, Utah). All the bone marrow derived cells (BMDCs) were plated in 6-wells culture plates (Corning, Corning, N.Y.) precoated with rat fibronectin (Calbiochem, San Diego, Calif.), in Hematopoietic Growth Medium (HPGM Lonza, Walkersvelle, Md.) contained 2% fetal bovine serum (FBS, Hyclone Laboratories) and antibiotics (1% penicillin-streptomycin, Invitrogen corp.). Cells were grown in presence of 10 ng/mL platelet derived growth factor (PDGF, Peprotech. Inc, Rocky Hill, N.J.) and 10 ng/mL […] (EGF, Peprotech. Inc.) during the first 7 days. The experimental protocol was approved by the animal care committee of the Montreal Heart Institute.
BMDCs were cultured and isolated as described above. At day 7, complete culture medium was replaced by an incomplete culture medium: HPGM medium, 2% fetal bovine serum ([…] EGF and PDGF), and 1% antibiotics (penicillin and streptomycin) with or without E2 (10^−10 M to 10^−6 M) (Sigma) and/or rapamycin (10^−11M to 10^−6 M) (LC Laboratories, Woburn, Mass.) or paclitaxel (10^−11M to 10^−6 M) (LC laboratories) for another 7 days. In the case of combined treatment, the E2 was added 24 h prior the addition of the drug. First medium change was performed four days after plating and each following three days for a total of 14 days in culture.
After this treatment, the cells were removed from the 6-well culture plate using a 0.02% solution of (ethylenedinitrilo) tetraacetic acid (EDTA, Sigma) and diluted 1:1 in Trypan blue (Invitrogen corp.) before cell count with a hemacytometer (Hausser Bright-line). Total cells number, white cells and blue stained cells were counted. The proliferation rate was defined as the total number of cells over the number of cells at day 0 of the initiation of the treatment. The survival rate was defined as the number of white cells among the total cell population. The mortality rate was defined as the percentage of blue cells (dead cells) among the total cell population. […] The combination assay was achieved by a 24-hour pretreatment of BMDCs with different concentrations of E2 (10^−8 to 10^−10 M) and the drug was added at its IC50 concentration for a one week treatment. After this time, cells were processed as described above.

[4] = tested on: bone marrow derived cells (BMDCs); test: Necrosis and apoptosis levels (annexin V / propidium iodide flow cytometry); format: cell-based, mouse (C57BL/6 female mice); settings: for number of annexin V positive cells: drug at IC90 dose, 48 hrs
Procedure: After being cultured and isolated as described above, BMDCs were plated in 12-well culture plate. […] The cells were analyzed 24, 48 and 72 hours later after staining with FITC-conjugated annexin V (Alexis biochemical, San Diego, Calif.) and propidium iodide (PI, Sigma). Acquisition and analysis were performed on an Epics Altra cytometer as described in the section above “Analysis of the differentiation profile”.
In order to evaluate the effect of E2, paclitaxel or rapamycin on early apoptosis, late apoptosis and necrosis, BMDC were treated with either E2, paclitaxel or rapamycin and stained with annexin V and propodium iodine. Cells positive for annexin V only are considered in the early phases of apoptosis while cells positive for propodium iodine only are in necrosis. Cells which stained for both annexin V and propiodium iodine are in a more advanced apoptotic process (FIG. 6). The effect of E2 on the levels of apoptotic and necrotic cells in rapamycin or paclitaxel-treated cells was evaluated (FIG. 7)

[5] = tested on: ERα and ERβ expressed by BMDCs; test: Western blot, ratio of ERα expression over ERβ in BMDCs; format: cell-based, mouse (C57BL/6 female mice); settings: 24-hour stimulation, at 10^−8 and 10^−7M
Procedure: as §2

ERα = test: Western blot, ERα expression in BMDCs / mBMPC; settings: paclitaxel-treated cells, 24 h, 10^−8 and 10^−7M

`C[C@]12CC[C@@H]3c4ccc(O)cc4CC[C@H]3[C@@H]1CC[C@@H]2O` [E2, 17-beta-estradiol] was tested, and the “percentage of CD117+ cells” value [1] was “tended to increase; also recorded: increases”, the “percentage of CD117+ cells” value ([1]; listed as Estradiol) was “increase” and the “level (%) of CD117+ cells in paclitaxel-treated BMDCs” value ([1]; in the presence of E2 (24 h pre-treatment), paclitaxel 5×10^−9 M) was “higher level”. The “total or sub-populations of CD44+ cells” value [1] was “no effect”, the “number of CD14+ cells” value ([1]; two weeks in culture including one week with various doses of E2) was “does not influence” and the “number of living cells” value ([2]; one-week treatment with a dose range of E2, compared to cells maintained in HPGM) was “not affected”. The “regulation of ERβ expression” value (ERβ; mBMPC, 24-hour stimulation with various doses of E2 (not shown)) was “No regulation”, the “dead cells (percentage of dead cells)” value [3] was “not affected” and the “reduction of mortality rate” value [3] was 7-11%. For the same molecule, the “improvement of survival rate” value ([3]; 10^−10M E2 added to rapamycin or paclitaxel at IC50, one week, compared to cells treated with the drug only) was “about 30%”, the “apoptotic and necrotic cells rates” value ([4]; 1 week incubation, alone or in combination with E2, flow cytometry) was “no appreciable differences” and the “percentage of annexin V positive cells” value ([4]; E2 combined with rapamycin IC50, 48 hrs, compared to rapamycin IC50 alone) was “tended to reduce”. The “blocking of the drug-induced (IC90) increase of annexin V positive cells” value ([4]; E2 combined with rapamycin or paclitaxel at IC90, 48 hrs stimulations) was “could not be blocked”.

`CC(=O)O[C@H]1C(=O)[C@@]2(C)[C@H]([C@H](OC(=O)c3ccccc3)[C@]3(O)C[C@H](OC(=O)[C@H](O)[C@@H](NC(=O)c4ccccc4)c4ccccc4)C(C)=C1C3(C)C)[C@]1(OC(C)=O)CO[C@@H]1C[C@@H]2O` [paclitaxel] was tested, and the “total or sub-populations of CD44+ cells” value [1] was “no effect”, the “differentiation profile of CD117+ or CD44+” value ([1]; one-week treatment at IC50 concentration) was “does not affect” and the “effect on proliferation at very low doses” value ([2]; BMDCs, one week, very low doses) was “proliferative effect”. The IC50 ([2]; BMDCs) was 5 nM, the “drop in ERα/ERβ ratio” value [5] was “up to 50%” and the ERβ expression (ERβ; paclitaxel-treated cells, 24 h, 10^−8 and 10^−7M) was “induction”. For the same molecule, the “mortality rate, drug alone” value [3] was “not observed”, the “toxicity on bone marrow derived cells” value [3] was “toxic” and the “number of annexin V positive cells” value [4] was “increased significantly”. The ERα expression (ERα) was “decrease”.

With `CO[C@H]1C[C@@H]2CC[C@@H](C)[C@@](O)(O2)C(=O)C(=O)N2CCCC[C@H]2C(=O)O[C@H]([C@H](C)C[C@@H]2CC[C@@H](O)[C@H](OC)C2)CC(=O)[C@H](C)/C=C(\C)[C@@H](O)[C@@H](OC)C(=O)[C@H](C)C[C@H](C)/C=C/C=C/C=C/1C` [rapamycin] the “total or sub-populations of CD44+ cells” value [1] was “no effect”, the IC50 ([2]; BMDCs) was 0.1 nM and the “mortality rate, drug alone” value [3] was “significantly increased”. The “toxicity on bone marrow derived cells” value [3] was “toxic” and the “number of annexin V positive cells” value [4] was “increased significantly”.
